Values belong to the molecule of their own block, whether it stands above or below them.
Assays:
[1] = test system: Rattus norvegicus; experiment: In vivo clearance in Sprague-Dawley rat
[2] = Oral bioavailability in CD1 mouse Calu6 tumor xenograft model at 5 mg/kg administered as suspension in 20% captisol in PBS; assay type: ADME, organism-based; conditions: in vivo
[3] = Volume of distribution at steady state in CD1 mouse Calu6 tumor xenograft model at 1 mg/kg, iv administered as solution in DMSO and 5 mg/kg, po administered as suspension in 20% captisol in PBS; assay type: ADME, organism-based; conditions: in vivo, read-out: Vdss
[4] = Volume of distribution at steady state in Sprague-Dawley rat at 1 mg/kg, iv administered as solution in DSMO and 5 mg/kg, po administered as suspension in 1% Tween 80 and 1% HPMC in water after 12 to 24 hrs by LC-MS analysis; assay type: ADME, organism-based; conditions: in vivo, read-out: Vdss
[5] = Half life in Sprague-Dawley rat at 1 mg/kg, iv administered as solution in DSMO and 5 mg/kg, po administered as suspension in 1% Tween 80 and 1% HPMC in water after 12 to 24 hrs by LC-MS analysis; assay type: ADME, organism-based; conditions: in vivo
[6] = Clearance in Sprague-Dawley rat at 1 mg/kg, iv administered as solution in DSMO and 5 mg/kg, po administered as suspension in 1% Tween 80 and 1% HPMC in water after 12 to 24 hrs by LC-MS analysis; assay type: ADME, organism-based; conditions: in vivo
[7] = Clearance in CD1 mouse Calu6 tumor xenograft model at 1 mg/kg, iv administered as solution in DMSO and 5 mg/kg, po administered as suspension in 20% captisol in PBS; assay type: ADME, organism-based; conditions: in vivo
[8] = Half life in CD1 mouse Calu6 tumor xenograft model at 1 mg/kg, iv administered as solution in DMSO and 5 mg/kg, po administered as suspension in 20% captisol in PBS; assay type: ADME, organism-based; conditions: in vivo
[9] = Oral bioavailability in Sprague-Dawley rat at 5 mg/kg administered as suspension in 1% Tween 80 and 1% HPMC in water after 12 to 24 hrs by LC-MS analysis; assay type: ADME, organism-based; conditions: in vivo
[10] = Cmax in CD1 mouse Calu6 tumor xenograft model at 30 mg/kg, po administered twice daily as suspension in 20% captisol in PBS of pH 3.5; assay type: ADME, organism-based; design: dose 30 mg/kg, route oral; conditions: in vivo
[11] = Clearance in CD1 mouse Calu6 tumor xenograft model at 12 mg/kg, iv administered as solution in aqueous propylene glycol and 30 mg/kg, po administered as suspension in 20% captisol in PBS of pH 5.73; assay type: ADME, organism-based; conditions: in vivo
[12] = Volume of distribution at steady state in CD1 mouse Calu6 tumor xenograft model at 12 mg/kg, iv administered as solution in aqueous propylene glycol and 30 mg/kg, po administered as suspension in 20% captisol in PBS of pH 5.73; assay type: ADME, organism-based; conditions: in vivo, read-out: Vdss
[13] = Half life in Sprague-Dawley rat at 2 mg/kg, iv administered as solution in DSMO and 5 mg/kg, po administered as suspension in 1% Tween 80 and 1% HPMC in water after 12 to 24 hrs by LC-MS analysis; assay type: ADME, organism-based; conditions: in vivo
[14] = Volume of distribution at steady state in Sprague-Dawley rat at 2 mg/kg, iv administered as solution in DSMO and 5 mg/kg, po administered as suspension in 1% Tween 80 and 1% HPMC in water after 12 to 24 hrs by LC-MS analysis; assay type: ADME, organism-based; conditions: in vivo, read-out: Vdss
[15] = Clearance in Sprague-Dawley rat at 2 mg/kg, iv administered as solution in DSMO and 5 mg/kg, po administered as suspension in 1% Tween 80 and 1% HPMC in water after 12 to 24 hrs by LC-MS analysis; assay type: ADME, organism-based; conditions: in vivo
[16] = Half life in CD1 mouse Calu6 tumor xenograft model at 12 mg/kg, iv administered as solution in aqueous propylene glycol and 30 mg/kg, po administered as suspension in 20% captisol in PBS of pH 5.73; assay type: ADME, organism-based; conditions: in vivo
[17] = in vivo; conditions: CD1, mouse, tumor and plasma, po, 100 mg/kg, pH 3.5
[18] = AUC in tumor of CD1 mouse Calu6 tumor xenograft model at 100 mg/kg, po administered twice daily as suspension in 20% captisol in PBS of pH 3.5; assay type: ADME, organism-based, Neoplasm; design: dose 100 mg/kg, route oral
[19] = Cmax in tumor of CD1 mouse Calu6 tumor xenograft model at 30 mg/kg, po administered twice daily as suspension in 20% captisol in PBS of pH 3.5; assay type: ADME, organism-based, Neoplasm; design: dose 30 mg/kg, route oral
[20] = Cmax in CD1 mouse Calu6 tumor xenograft model at 100 mg/kg, po administered twice daily as suspension in 20% captisol in PBS of pH 3.5; assay type: ADME, organism-based; design: dose 100 mg/kg, route oral; conditions: in vivo
[21] = AUC in tumor of CD1 mouse Calu6 tumor xenograft model at 30 mg/kg, po administered twice daily as suspension in 20% captisol in PBS of pH 3.5; assay type: ADME, organism-based, Neoplasm; design: dose 30 mg/kg, route oral
[22] = in vivo; conditions: CD1, mouse, tumor and plasma, po, 30 mg/kg, pH 3.5
[23] = Cmax in tumor of CD1 mouse Calu6 tumor xenograft model at 100 mg/kg, po administered twice daily as suspension in 20% captisol in PBS of pH 3.5; assay type: ADME, organism-based, Neoplasm; design: dose 100 mg/kg, route oral
[24] = Cmax in tumor of CD1 mouse Calu6 tumor xenograft model at 100 mg/kg, po administered twice daily as suspension in 1% Tween 80 and 1% HPMC in water; assay type: ADME, organism-based, Neoplasm; design: dose 100 mg/kg, route oral
[25] = Cmax in CD1 mouse Calu6 tumor xenograft model at 30 mg/kg, po administered twice daily as suspension in 1% Tween 80 and 1% HPMC in water; assay type: ADME, organism-based; design: dose 30 mg/kg, route oral; conditions: in vivo
[26] = in vivo; conditions: CD1, mouse, tumor and plasma, po, 100 mg/kg
[27] = in vivo; conditions: CD1, mouse, tumor and plasma, po, 30 mg/kg
[28] = AUC in tumor of CD1 mouse Calu6 tumor xenograft model at 100 mg/kg, po administered twice daily as suspension in 1% Tween 80 and 1% HPMC in water; assay type: ADME, organism-based, Neoplasm; design: dose 100 mg/kg, route oral
[29] = AUC in tumor of CD1 mouse Calu6 tumor xenograft model at 30 mg/kg, po administered twice daily as suspension in 1% Tween 80 and 1% HPMC in water; assay type: ADME, organism-based, Neoplasm; design: dose 30 mg/kg, route oral
[30] = Cmax in tumor of CD1 mouse Calu6 tumor xenograft model at 30 mg/kg, po administered twice daily as suspension in 1% Tween 80 and 1% HPMC in water; assay type: ADME, organism-based, Neoplasm; design: dose 30 mg/kg, route oral
[31] = Cmax in CD1 mouse Calu6 tumor xenograft model at 100 mg/kg, po administered twice daily as suspension in 1% Tween 80 and 1% HPMC in water; assay type: ADME, organism-based; design: dose 100 mg/kg, route oral; conditions: in vivo

Compound: COc1cc(Nc2nccc(Nc3cnc4ccccc4c3)n2)ccc1OCCCN1CCCCC1
CL [1]: 31.7 mL/min/kg

Compound: COc1ccc(Nc2nccc(Nc3cnc4ccccc4c3)n2)cc1Cl
CL [1]: 48.3 mL/min/kg

Compound: COc1cc(Nc2nccc(Nc3ccc4[nH]ncc4c3)n2)cc(OC)c1OC
CL [1]: 40 mL/min/kg

Compound: COc1cc(Nc2nccc(Nc3cnc4ccccc4c3)n2)cc(OC)c1
CL [1]: 48.3 mL/min/kg

Compound: c1ccc2ncc(Nc3ccnc(Nc4ccc(OCCCN5CCCCC5)cc4)n3)cc2c1
Cmax [10]: 180 nM | clearance [11]: 98.3 mL/min/kg | Vd [12]: 28.1 L/kg | half-life [13]: 12.1 h | Vd [14]: 9.5 L/kg | clearance [15]: 10 mL/min/kg | half-life [16]: 5.3 h | Kp [17]: 81.9 | AUC [18]: 1120 µg·h/mL | Cmax [19]: 1360 nM | bioavailability [9]: 9% | Cmax [20]: 2220 nM | AUC [21]: 13.3 µg·h/mL | Kp [22]: 11.6 | Cmax [23]: 143000 nM

Compound: COc1cc(Nc2nccc(Nc3cnc4ccccc4c3)n2)ccc1N1CCOCC1
CL [1]: 48.3 mL/min/kg

Next, values leading:

bioavailability [2]: 56% | Vd [3]: 1.8 L/kg | Vd [4]: 1.1 L/kg | half-life [5]: 1.3 h | clearance [6]: 20 mL/min/kg | clearance [7]: 107 mL/min/kg | half-life [8]: 2.3 h | bioavailability [9]: 16%
Compound: COc1cc(Nc2nccc(Nc3ccc4ncccc4c3)n2)cc(OC)c1OC

CL [1]: 40 mL/min/kg
Compound: COc1cc(Nc2nccc(Nc3cc4ccccc4cn3)n2)cc(OC)c1OC

CL [1]: 40 mL/min/kg
Compound: COc1cc(Nc2nccc(Nc3ccc4ccccc4c3)n2)cc(OC)c1OC

bioavailability [2]: 63% | Vd [3]: 0.3 L/kg | Cmax [24]: 2720 nM | Vd [4]: 0.2 L/kg | Cmax [25]: 5340 nM | Kp [26]: 0.18 | half-life [5]: 1.7 h | clearance [6]: 6.67 mL/min/kg | Kp [27]: 0.129 | AUC [28]: 5.17 µg·h/mL | clearance [7]: 26.7 mL/min/kg | AUC [29]: 0.989 µg·h/mL | Cmax [30]: 525 nM | half-life [8]: 1.7 h | bioavailability [9]: 33% | Cmax [31]: 13400 nM
Compound: COc1cc(Nc2nccc(Nc3cnc4ccccc4c3)n2)cc(OC)c1OC

Source: ChEMBL document CHEMBL1759866, “Discovery of 2,4-bis-arylamino-1,3-pyrimidines as insulin-like growth factor-1 receptor (IGF-1R) inhibitors” (Bioorg Med Chem Lett, 2011)
